Experimental data published in the supplement of paper PMC10307832.

Key:
Assay in all cases: relative viability (nuclei count vs DMSO), 5 days (fraction); higher = more cells survive
[1] = compound: Cc1cc(Nc2cc(N3CCN(C)CC3)nc(Sc3ccc(NC(=O)C4CC4)cc3)n2)n[nH]1 [Tozasertib] + CC(C)C[C@H](NC(=O)[C@H](Cc1ccccc1)NC(=O)c1cnccn1)B(O)O [Bortezomib] (partner 0.002 µM)
Summary of the method: (§1)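 Lung cancer cell lines were seeded in 1536-well plates and dosed by pin tool the next day, with either a single drug or a fixed anchor-drug dose combined with five library-drug doses (not always all listed) spaced in √10 steps. Five days later, one step fixed the cells and stained their nuclei (final 0.05% Triton X-100, 1% formaldehyde, 1 ug/ml Hoechst), and nuclei were counted on 4× images. Relative viability is the nuclei count in treated wells divided by the count in vehicle wells, and each value is the median of duplicate plates.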

[2] = compound: Cc1cc(Nc2cc(N3CCN(C)CC3)nc(Sc3ccc(NC(=O)C4CC4)cc3)n2)n[nH]1 [Tozasertib] + CC1(C)CCC(c2ccc(Cl)cc2)=C(CN2CCN(c3ccc(C(=O)NS(=O)(=O)c4ccc(N[C@H](CCN5CCOCC5)CSc5ccccc5)c(S(=O)(=O)C(F)(F)F)c4)cc3)CC2)C1 [Navitoclax] (partner 0.5 µM)
Summary of the method: as §1

[3] = compound: Cc1cc(Nc2cc(N3CCN(C)CC3)nc(Sc3ccc(NC(=O)C4CC4)cc3)n2)n[nH]1 [Tozasertib] + CS(=O)(=O)N1CCN(Cc2cc3nc(-c4cccc5[nH]ncc45)nc(N4CCOCC4)c3s2)CC1 [Pictilisib] (partner 1 µM)
Summary of the method: as §1

[4] = compound: Cc1cc(Nc2cc(N3CCN(C)CC3)nc(Sc3ccc(NC(=O)C4CC4)cc3)n2)n[nH]1 [Tozasertib] + C[C@]1(O)C[C@@H](c2nc(-c3ccc4ccc(-c5ccccc5)nc4c3)c3c(N)nccn32)C1 [Linsitinib] (partner 1 µM)
Summary of the method: as §1

[5] = compound: Cc1cc(Nc2cc(N3CCN(C)CC3)nc(Sc3ccc(NC(=O)C4CC4)cc3)n2)n[nH]1 [Tozasertib] + N=C(N)NC(=N)NCCc1ccccc1 [Phenformin] (partner 250 µM)
Summary of the method: as §1

Row | Cell Line | relative viability ([1]; first compound 0.004 µM) | relative viability ([1]; first compound 0.01265 µM) | relative viability ([1]; first compound 0.04 µM) | relative viability ([1]; first compound 0.1265 µM) | relative viability ([2]; first compound 0.004 µM) | relative viability ([2]; first compound 0.01265 µM) | relative viability ([2]; first compound 0.04 µM) | relative viability ([2]; first compound 0.1265 µM) | relative viability ([3]; first compound 0.004 µM) | relative viability ([3]; first compound 0.01265 µM) | relative viability ([3]; first compound 0.04 µM) | relative viability ([3]; first compound 0.1265 µM) | relative viability ([4]; first compound 0.004 µM) | relative viability ([4]; first compound 0.01265 µM) | relative viability ([4]; first compound 0.04 µM) | relative viability ([4]; first compound 0.1265 µM) | relative viability ([5]; first compound 0.004 µM) | relative viability ([5]; first compound 0.01265 µM) | relative viability ([5]; first compound 0.04 µM) | relative viability ([5]; first compound 0.1265 µM)
1 | NCI-H1734 | 0.833 | 0.998 | 1.07 | 0.464 | 0.851 | 0.761 | 0.834 | 0.504 | 0.528 | 0.494 | 0.518 | 0.401 | 0.894 | 0.938 | 0.938 | 0.616 | 0.41 | 0.432 | 0.374 | 0.241
2 | NCI-H1755 | 0.938 | 0.927 | 1.04 | 0.626 | 0.978 | 0.977 | 1.02 | 0.875 | 0.422 | 0.395 | 0.444 | 0.232 | 0.976 | 0.948 | 0.999 | 0.865 | 0.593 | 0.597 | 0.592 | 0.483
3 | NCI-H1792 | 0.771 | 0.88 | 1.1 | 0.96 | 0.681 | 0.481 |  | 0.418 | 0.297 | 0.203 | 0.241 | 0.167 | 0.461 | 0.398 | 0.528 | 0.331 | 0.325 |  | 0.423 | 0.209
4 | NCI-H1915 | 1.07 | 0.924 | 0.953 | 0.727 | 0.767 | 0.765 | 0.773 | 0.623 | 1.06 | 0.862 | 0.872 | 0.635 | 1.1 | 1.06 |  | 1.05 | 0.381 | 0.324 | 0.336 | 0.321
5 | NCI-H1975 | 0.319 | 0.408 |  | 0.338 | 1.14 | 1.2 | 1.23 | 1.1 | 0.323 | 0.278 | 0.295 | 0.238 | 0.961 | 1.06 | 1.04 | 0.953 | 0.444 | 0.432 | 0.428 | 0.366
6 | NCI-H1993 | 1.06 | 1.05 | 1.33 | 0.805 | 0.901 | 0.884 | 0.927 | 0.651 |  | 0.759 |  | 0.632 | 0.8 | 0.668 | 0.649 | 0.616 | 0.527 | 0.482 | 0.481 | 0.486
7 | NCI-H2009 | 1.12 | 0.938 | 1.08 | 0.811 | 1.21 | 1.16 | 1.17 | 1.17 | 0.851 | 0.79 |  | 0.552 | 1.19 | 1.22 | 1.15 | 1.19 | 0.5 | 0.455 | 0.476 | 0.477
8 | NCI-H2023 | 1.2 | 0.905 | 1.16 |  | 1.04 | 0.983 | 1.05 | 0.924 | 0.306 | 0.287 | 0.296 | 0.0957 | 0.626 | 0.633 | 0.694 | 0.628 | 0.393 | 0.393 | 0.407 | 0.258
9 | NCI-H2085 | 1.01 | 1.07 | 1.11 | 0.792 | 1.14 | 1.12 | 1.13 | 0.816 | 0.454 | 0.421 | 0.486 | 0.266 | 0.966 | 0.865 | 0.949 | 0.649 | 0.759 | 0.744 | 0.731 | 
10 | NCI-H2087 | 0.83 | 0.787 | 0.78 | 0.723 | 1.01 | 0.872 | 1.1 | 0.644 | 0.928 | 0.885 | 0.933 | 0.714 | 0.925 | 1.13 | 1.08 | 0.841 | 0.487 | 0.443 | 0.539 | 0.344
11 | NCI-H2126 | 1.12 | 1.1 | 1.22 | 1.14 | 0.842 | 0.802 | 0.963 | 0.865 | 0.505 | 0.529 | 0.532 | 0.426 | 0.623 | 0.728 | 0.825 | 0.716 | 0.604 | 0.562 | 0.467 | 0.51
12 | NCI-H2228 | 1.31 |  |  | 0.434 | 0.717 |  | 1.23 | 1.06 | 0.509 |  | 0.326 | 0.355 | 0.526 |  | 0.766 | 0.557 | 0.375 | 0.298 | 0.254 | 0.132
13 | NCI-H2347 | 1.18 | 0.961 | 1 | 0.658 | 0.921 | 0.761 | 0.901 | 0.755 | 0.723 | 0.763 | 0.648 | 0.389 | 0.978 | 1 | 0.964 | 0.914 | 0.45 |  | 0.433 | 0.377
14 | NCI-H2405 | 1.05 | 0.944 | 0.96 | 0.826 | 0.795 | 0.95 | 0.671 | 0.871 | 0.386 | 0.478 | 0.479 | 0.396 | 1.03 | 0.944 |  | 0.962 | 0.392 | 0.402 | 0.424 | 0.408
15 | NCI-H3122 | 1.01 | 0.994 | 1.01 | 1.02 | 0.996 | 1 | 1.04 | 1.05 | 0.626 | 0.49 | 0.656 | 0.61 | 0.994 | 0.997 | 0.962 | 1.05 | 0.38 | 0.346 | 0.366 | 0.312
16 | PC-3 [JPC-3] | 0.787 | 0.829 | 0.881 | 0.757 | 0.579 | 0.699 | 0.935 | 0.756 | 0.657 | 0.724 | 0.732 | 0.598 | 0.902 | 0.935 | 0.971 | 0.972 | 0.377 | 0.49 | 0.536 | 0.469
17 | PC-14 | 0.861 | 0.9 | 1.03 | 0.896 | 1.03 |  | 1.01 |  | 0.14 | 0.541 | 0.593 | 0.725 | 1.01 | 1 | 1.03 | 0.828 | 0.248 | 0.359 | 0.556 | 0.257
18 | RERF-LC-KJ | 0.983 | 1.11 | 1.12 | 0.96 | 0.994 | 0.93 | 0.804 | 0.997 | 0.503 | 0.594 | 0.597 | 0.456 | 0.876 | 0.861 | 0.907 | 0.777 | 0.443 | 0.425 | 0.485 | 0.435
19 | SK-LU-1 | 1.18 | 1.07 | 1.27 | 0.813 | 0.894 | 0.939 | 0.981 | 0.635 | 0.71 | 0.508 | 0.639 | 0.458 | 1.32 | 1.09 | 1.03 | 0.957 | 0.55 | 0.569 | 0.578 | 0.324
20 | SW 1573 | 1.15 | 1.07 | 1.22 | 0.744 | 1.1 | 1.06 | 1.15 | 0.816 | 0.541 | 0.541 | 0.546 | 0.293 | 0.76 | 0.901 |  | 0.517 | 0.35 | 0.393 | 0.361 | 0.284
21 | UMC-11 | 0.729 | 0.621 | 0.768 | 0.186 | 0.381 | 0.295 | 0.303 | 0.13 | 1.09 | 0.788 | 0.864 | 0.463 | 1.1 | 1.03 | 1.06 | 0.173 | 0.372 | 0.308 | 0.3 | 0.171
